The source of these data is article PMC4752462 (PLoS ONE, 2016).

One data set deals with T1, human recombinant CYP3A4 (Homo sapiens, UniProt P08684).
T1 construct: purchased Life Technologies P2858; host or cells: baculosomes (baculovirus-infected insect cell microsomes)
Nature of the data set: CYP3A4 inhibition, Vivid CYP450 blue screening kit with baculosomes. The format is biochemical. The following applies: for CYP3A4 activity (Fig 5 data): control = 100. Here is the method: CYP3A4 inhibition assay was carried out by using Vivid® CYP450 Screening Kit from Life Technologies as recommended by the manufacturer (# P2858, Carlsbad, CA). This assay allows rapid measurement of interactions between drugs of interest and CYP enzymes based on their capability to inhibit the production of a fluorescent signal in reactions using CYP BACULOSOMES® Plus Reagents and specific Vivid® Substrates. Briefly, the assay was conducted in a 96-well assay plate. […] The final concentrations of 2.5, 5, 7.5, 10, 25, 50, 75, and 100 μM were achieved by diluting the stocks in 1X Vivid® CYP reaction buffer. […] For ethanol only experiment, 2.5, 5, […], 20, 30, and 50 mM final concentrations were used. The final concentration of acetonitrile in each reaction was 0.01% in 100 μl final reaction volume. The fluorescence was immediately measured using a microplate reader (Cytation™ 5 Cell Imaging Multi-Mode Reader, BioTek, VT) at the 415/460 nm excitation and emission wavelengths.
The concentrations of all the drugs were quantified using Ab Sciex Analyst® software. Microsomal kinetic data were analyzed using Michaelis-Menten and exponential decay equations. CYP3A4 inhibition data were evaluated by fitting the values to dose-response inhibition and calculated IC50 values were reported. All graphs were plotted and two-tailed t-tests were performed wherever appropriate using GraphPad Prism 5.01 (GraphPad, San Diego, CA). Significant differences between more than two groups analyzed with one-way ANOVA followed by Dunnett’s multiple comparison tests using IBM SPSS […] version 20. A p value <0.05 was considered significant compared to respective controls. The original data and/or statistical analyses for Michaelis-Menten Kinetics, drug metabolism and half-life determination, inhibition studies, and ligand docking are provided in the supporting information (S1 file).

For the next data set, the system named is CYP3A4. The following applies: based on the EVG metabolic activity; cited from earlier work.

Molecules are shown by their SMILES. “And” between values parts separate entries of the source, which are not always exact repeats. Identical values can stand only once.

T1 sequence (P08684 whole entry): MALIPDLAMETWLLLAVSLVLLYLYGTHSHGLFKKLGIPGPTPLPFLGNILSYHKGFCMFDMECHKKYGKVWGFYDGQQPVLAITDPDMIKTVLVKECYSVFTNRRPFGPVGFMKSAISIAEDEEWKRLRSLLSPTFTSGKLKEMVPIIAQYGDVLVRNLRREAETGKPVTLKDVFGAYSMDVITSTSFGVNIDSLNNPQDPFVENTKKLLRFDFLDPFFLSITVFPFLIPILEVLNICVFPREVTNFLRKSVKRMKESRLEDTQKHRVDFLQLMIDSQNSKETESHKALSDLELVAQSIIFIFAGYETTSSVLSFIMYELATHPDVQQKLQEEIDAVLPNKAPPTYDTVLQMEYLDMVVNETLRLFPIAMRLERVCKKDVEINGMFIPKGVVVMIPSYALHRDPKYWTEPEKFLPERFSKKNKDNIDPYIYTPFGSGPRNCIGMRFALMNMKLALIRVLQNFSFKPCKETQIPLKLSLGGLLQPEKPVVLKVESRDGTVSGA

As usually defined, the IC50 is the concentration at which inhibition is half-maximal. The term Km denotes the substrate concentration at which the rate is half of its maximum. Consider `COc1cc2c(cc1Cc1cccc(Cl)c1F)c(=O)c(C(=O)O)cn2[C@H](CO)C(C)C` [EVG, Elvitegravir], for which the “CYP3A4 activity (Fig 5 data)” value at human recombinant CYP3A4 (EVG 2.5 uM) is listed as 77.957; at human recombinant CYP3A4 (EVG 5 uM), 63.9794; at human recombinant CYP3A4 (EVG 7.5 uM), 59.992; at human recombinant CYP3A4 (EVG 10 uM) it was 55.6409; on human recombinant CYP3A4 (EVG 25 uM), 40.6332; at human recombinant CYP3A4 (EVG 50 uM), 32.8987. The “CYP3A4 activity (Fig 5 data)” value on human recombinant CYP3A4 (EVG 75 uM) turned out to be 28.0321; on human recombinant CYP3A4 (EVG 100 uM), 18.7817. Moreover, the IC50 at human recombinant CYP3A4 (EVG with ethanol at 20 mM) was 17.5 ± 1.5 µM; on human recombinant CYP3A4 (EtOH 20 mM, COBI at concentration matching EVG unless 0.04 μM stated), 13 µM and 13.1 µM; on human recombinant CYP3A4 (With Ethanol, three values per group), 19 µM and 16.5 µM. Moreover, the “increase in the IC50 by ethanol” value at human recombinant CYP3A4 (ethanol at 20 mM compared to EVG alone) was found to be 34%. For the same molecule, the Km with CYP3A4 is 21.5 µM.
